Source: US11840521B2, “Modulators of Mas-related G-protein receptor X4 and related products and methods” (Escient Pharmaceuticals, Inc., priority 2019, dated 2023)
Like-named read-outs stand apart in the source and are kept apart here.

Target: MRGPRX4 (Homo sapiens, UniProt Q96LA9)
Experiment: MRGPR X4 antagonist activity, IP-One Gq HTRF assay in stably transfected HEK cells (versus agonist bilirubin, deoxycholic acid, conjugated bilirubin, urobilin, obeticholic acid or BAR502)
Type: cell-based
Parameters: expressed in transfected cells; host or cells: HEK cells, stably transfected
Method: HEK cells stably transfected to express human MRGPR X4 were maintained in an incubator at 37° C. with 5% CO2 and grown in DMEM media with 10% fetal bovine serum (FBS) and 1% each of sodium pyruvate, Glutamax, penicillin/streptomycin, and Geneticin. HEK cells stably transfected to express mouse MRGPR A1 were maintained in the same incubator and grown in DMEM media with 10% FBS, 1% each of sodium pyruvate, Glutamax, penicillin/streptomycin, Geneticin, and 2.2 mg/mL Hygromycin.
Cells were plated in a 384-well assay plate at 20,000 cells per well in 12 μL of Opti-MEM and kept in an incubator overnight. On the day of the assay, compounds solubilized at 10 mM in DMSO were added as a 10-point curve (10 uM final top concentration with 1:3 serial dilutions) using a Tecan D300E digital dispenser. […] Final concentrations of DMSO were kept consistent across the plate. Plates were incubated in the dark for 1 h at 37° C. and then for 30 minutes at room temperature. IP-1 standards and HTRF detection reagents were added according to the IP-One—Gq Kit purchased from Cisbio (part number 62IPAPEJ) and incubated in the dark for 1 h at room temperature. The plate was read on a Molecular Devices SpectraMax iD5 plate reader. The HTRF ratio was calculated from the raw data and graphed using GraphPad Prism to calculate an IC50 value for each compound.

[1] = versus 10 μM Bilirubin agonist, HEK cells expressing human MRGPR X4, read-out: MRGPR4 Antagonist Activity
[2] = versus 10 μM Bilirubin agonist, read-out: IC50 (Bilirubin agonist)
[3] = versus 20 μM deoxycholic acid, read-out: IC50 (Deoxycholic Acid agonist)
[4] = versus 20 μM obeticholic acid, read-out: IC50 (Obeticholic Acid Agonist)
[5] = versus 50 μM urobilin, read-out: IC50 (Urobilin Agonist)
[6] = versus 100 μM conjugated bilirubin, read-out: IC50 (Conjugated Bilirubin Agonist)

Sequence of MRGPRX4 (Q96LA9 whole entry): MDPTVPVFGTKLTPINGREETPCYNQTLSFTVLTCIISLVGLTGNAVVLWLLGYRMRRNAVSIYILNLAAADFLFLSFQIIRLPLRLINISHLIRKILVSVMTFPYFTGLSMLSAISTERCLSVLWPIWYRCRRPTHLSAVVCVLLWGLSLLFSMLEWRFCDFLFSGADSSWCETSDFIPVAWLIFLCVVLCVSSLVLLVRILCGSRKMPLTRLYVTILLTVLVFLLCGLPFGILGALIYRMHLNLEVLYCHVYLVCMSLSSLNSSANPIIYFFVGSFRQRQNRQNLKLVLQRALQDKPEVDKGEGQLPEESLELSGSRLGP

Structure (SMILES) | IC50 [1] [nM] | other results
O=C(O)c1cccc(COc2ccc(Cl)cc2C(F)(F)F)n1 [Compound 1-31] | < 100 | IC50 (read-out: IC50 (10 μM BAR502) nM, MRGPRX4 antagonists versus 10 μM BAR502 agonist): 11 nM; IC50 [2]: 10 nM; IC50 [3]: 5 nM; IC50 [4]: 5 nM; IC50 [5]: 7 nM; IC50 [6]: 9 nM
Fc1ccc(COc2ccc(C(F)(F)F)cc2Cl)cc1-c1nnn[nH]1 [Compound 17-16] | < 100 | 
O=C(O)c1ccc(NC(=O)c2cccc(COc3ccc(C(F)(F)F)cc3Cl)c2)cc1 [Compound 54-10] | 500 to 1000 | 
O=C(O)c1cccc(COc2ccc(C(F)(F)F)c(Cl)c2)c1F [Compound 4-15] | < 100 | 
N#Cc1cc(COc2ccc(C(F)(F)F)cc2Cl)cc(C(=O)O)c1 [Compound 32-1, 3-((2-chloro-4-(trifluoromethyl)phenoxy)methyl)-5-cyanobenzoic acid] | < 100 | IC50 [2]: 6 nM; IC50 [3]: 10 nM; IC50 [4]: 3 nM; IC50 [5]: 8 nM; IC50 [6]: 7 nM
O=C(O)c1cccc(CNc2ccc(C(F)(F)F)cc2Cl)c1 [Compound 12-4] | < 100 | 
O=C(O)c1cc(F)cc(COc2ccc(Cl)c(Cl)c2Cl)c1 [Compound 1-123] | < 100 | 
O=C(O)c1cccc(COc2ccc(OC(F)(F)F)cc2Cl)n1 [Compound 1-125] | < 100 | 
O=C(O)c1cccc(COc2ccc(Cl)c(Cl)c2Cl)c1F [Compound 1-124] | < 100 | 
Fc1cc(OCc2cccc(-c3nnn[nH]3)c2)ccc1C(F)(F)F [Compound 17-9] | < 100 | 
COC(=O)c1cccc(COc2ccc(N3CCOCC3)cc2)c1 [Compound 1-7] | 1000 to 2500 | 
O=C1CC(c2cccc(COc3ccc(C(F)(F)F)cc3Cl)c2)N1 (stereo not drawn) [Compound 59-1, 4-(3-((2-chloro-4-(trifluoromethyl)phenoxy)methyl)phenyl)azetidin-2-one] | 500 to 1000 | 
N#Cc1cc(OCc2cccc(C(=O)O)c2)ccc1Cl [Compound 1-70] | 1000 to 2500 | 
O=C(O)c1cccc(COc2ccc3sccc3c2)c1F [Compound 4-22] | 100 to 500 | 
O=C(O)c1cccc(COc2ccc(OC(F)(F)F)cc2)c1 [Compound 1-47] | 100 to 500 | 
O=C(O)c1cccc(COc2ccc(Cl)cc2C(F)(F)F)c1 [Compound 1-28] | 100 to 500 | 
N#Cc1cc(COc2ccc(Cl)cc2Cl)cc(C(=O)O)c1 [Compound 5-1, 3-cyano-5-((2,4-dichlorophenoxy)methyl)benzoic acid] | < 100 | IC50 [2]: 10 nM; IC50 [3]: 23 nM; IC50 [4]: 6 nM; IC50 [5]: 6 nM; IC50 [6]: 27 nM
N#Cc1ccc(OCc2cccc(C(=O)O)c2)c(C(F)(F)F)c1 [Compound 1-68] | 100 to 500 | 
O=C(Nc1ccccc1)c1cccc(COc2ccc(C(F)(F)F)cc2Cl)c1 [Compound 52-11] | 100 to 500 | 
O=C(O)c1cccc(COc2cccc(-c3ccccc3)c2)c1 [Compound 3-3] | 1000 to 2500 | 
COC(=O)c1cncc(COc2ccc(Cl)cc2Cl)n1 [Compound 1-9] | 1000 to 2500 | 
O=C(O)c1cccc(COc2ccccc2Cl)c1F [Compound 4-29] | > 2500 | 
CCOc1ccccc1OCc1cccc(C(=O)O)c1 [Compound 1-84] | 1000 to 2500 | 

Structure (SMILES) | IC50 [1] [nM] | other results
N#CCc1ccccc1OCc1cccc(C(=O)O)c1 [Compound 1-150] | > 2500 | 
N#Cc1ccc(OCc2cccc(C(=O)O)c2)c(Cl)c1 [Compound 1-35] | 100 to 500 | 
CCc1cc(COc2ccc(Cl)c(Cl)c2Cl)nc(C(=O)O)c1 [Compound 42-2] | < 100 | 
Cc1c(OCc2cccc(C(=O)O)c2)ccc2c1OCC2=O [Compound 1-154] | 100 to 500 | 
O=C(O)c1cccc(COc2ccc(C(F)(F)F)cc2C(F)(F)F)c1 [Compound 1-73] | < 100 | 
O=C(O)c1cccc(NC(=O)c2cccc(COc3ccc(C(F)(F)F)cc3Cl)c2)c1 [Compound 54-11] | > 2500 | 
O=C(N[C@@H](CO)C(=O)O)c1cccc(COc2ccc(C(F)(F)F)cc2Cl)c1 [Compound 54-9] | 100 to 500 | 
O=C(O)c1cccc(COc2ccc3c(c2)CCC3=O)c1 [Compound 1-74] | > 2500 | 
CC(=O)c1ccc(OCc2cccc(C(=O)O)c2)c(Cl)c1 [Compound 1-126] | 1000 to 2500 | 
O=C(O)c1cccc(COc2cccc3c2CCC3)c1 [Compound 1-33] | 1000 to 2500 | 
FC(F)(F)c1ccc(OCc2cccc(-c3ncc[nH]3)c2)c(Cl)c1 [Compound 46-1, 2-(3-((2-chloro-4-(trifluoromethyl)phenoxy)methyl)phenyl)-1H-imidazole] | 100 to 500 | 
Cc1cc(COc2ccc(C(F)(F)F)cc2Cl)nc(C(=O)O)c1 [Compound 41-2] | < 100 | 
O=C(O)c1cccc(COc2ccccc2C(F)F)c1 [Compound 33-1, 3-((2-(difluoromethyl)phenoxy)methyl)benzoic acid] | > 2500 | 
O=C(O)c1cccc(COc2cccc(Cl)c2F)c1 [Compound 1-75] | 1000 to 2500 | 
Cc1ccc(COc2ccc(Cl)cc2Cl)cc1C(=O)O [Compound 8-1, 5-((2,4-dichlorophenoxy)methyl)-2-methylbenzoic acid] | > 2500 | 
Cc1cc(C#N)ccc1OCc1cccc(C(=O)O)c1 [Compound 1-99] | 100 to 500 | 
Fc1cc(COc2ccc(C(F)(F)F)cc2Cl)cc(-c2nnn[nH]2)c1 [Compound 17-14] | < 100 | 
O=C(O)c1cccc(COc2ccc(-n3cccc3)cc2Cl)c1F [Compound 4-25] | 100 to 500 | 
O=C(NCCS(=O)(=O)O)c1ccc(COc2ccc(C(F)(F)F)cc2Cl)cc1 [Compound 52-5] | 100 to 500 | 
COC(=O)c1cccc(COc2ccc(Cl)cc2C)n1 [Compound 1-13] | 100 to 500 | 
COCCCNC(=O)c1cccc(COc2ccc(C(F)(F)F)cc2Cl)c1 [Compound 52-13] | < 100 | 
FC(F)(F)c1ccc(OCc2cccc(-c3cn[nH]n3)c2)c(Cl)c1 [Compound 48-1, 4-(3-((2-chloro-4-(trifluoromethyl)phenoxy)methyl)phenyl)-2H-1,2,3-triazole] | 1000 to 2500 | 
N#Cc1cc(COc2ccc(C(F)(F)F)c(Cl)c2)cc(C(=O)O)c1 [Compound 32-5] | < 100 | 

Structure (SMILES) | IC50 [1] [nM] | other results
O=S(=O)(O)c1cccc(COc2ccc(C(F)(F)F)cc2Cl)c1 [Compound 40-1, 3-((2-chloro-4-(trifluoromethyl)phenoxy)methyl)benzenesulfonic acid] | 500 to 1000 | 
O=C(O)c1cccc(COc2ccc(OC(F)(F)F)c(Cl)c2)n1 [Compound 1-129] | < 100 | 
O=C(O)c1cc(COc2ccc(Cl)cc2Cl)ccc1Cl [Compound 1-44] | 500 to 1000 | 
N#Cc1cccc(COc2ccc(C(F)(F)F)cc2Cl)c1 [Compound 17-1, 3-((2-chloro-4-(trifluoromethyl)phenoxy)methyl)benzonitrile] | 100 to 500 | 
Cc1cc(Cl)ccc1OCc1cccc(C(=O)O)c1 [Compound 3-5] | 100 to 500 | 
Cc1cc(COc2ccc3ccccc3c2)cc(C(=O)O)c1 [Compound 4-12] | < 100 | 
O=C(O)c1cccc(COc2cc3ccccc3cc2Cl)c1 [Compound 1-130] | 100 to 500 | 
Cc1c(COc2ccc(Cl)cc2Cl)cccc1C(=O)O [Compound 4-8] | 100 to 500 | 
O=C(O)c1cc(COc2ccc(C(F)(F)F)cc2Cl)ccn1 [Compound 1-137] | 100 to 500 | 
CCOc1ccc(OCc2cccc(C(=O)O)c2)cc1 [Compound 1-45] | 1000 to 2500 | 
O=C(c1ccc(COc2ccc(C(F)(F)F)cc2Cl)cc1)N1CCC2(COC2)C1 [Compound 52-4] | 1000 to 2500 | 
FC(F)c1cccc(COc2ccc(C(F)(F)F)cc2Cl)c1 [Compound 50-1, 2-chloro-1-((3-(difluoromethyl)benzyl)oxy)-4-(trifluoromethyl)benzene] | 1000 to 2500 | 
O=C(O)c1cc(COc2ccc(Cl)cc2Cl)ccc1F [Compound 4-3] | 100 to 500 | 
COC(=O)c1cccc(COc2cccc(F)c2)c1 [Compound 1-5] | 100 to 500 | 
COc1ccc(C(=O)O)cc1COc1ccc(Cl)cc1Cl [Compound 1-27] | > 2500 | 
O=C(O)c1cccc(COc2cccc(C(F)F)c2)c1 [Compound 1-100] | > 2500 | 
O=C(O)c1cccc(CSc2ccc(Cl)cc2Cl)c1 [Compound 15-1, 3-(((2,4-dichlorophenyl)thio)methyl)benzoic acid] | 100 to 500 | 
Nc1cccc(COc2ccc(C(F)(F)F)cc2Cl)c1 [Compound 65-1, 3-((2-chloro-4-(trifluoromethyl)phenoxy)methyl)aniline] | 500 to 1000 | 
O=C(c1cccc(COc2ccc(C(F)(F)F)cc2Cl)c1)N1CC(O)C1 [Compound 52-18] | 500 to 1000 | 
CNC(=O)c1ccc(OCc2cccc(C(=O)O)c2)cc1 [Compound 1-152] | 1000 to 2500 | 
COc1ccc(COc2ccc(Cl)cc2Cl)cc1C(=O)O [Compound 1-32] | 1000 to 2500 | 
CCc1cc(COc2ccc3ccccc3c2)nc(C(=O)O)c1 [Compound 42-1, 4-ethyl-6-((naphthalen-2-yloxy)methyl)picolinic acid] | < 100 | 
